Source: patent US20180311342A1, “IMMUNOSTIMULATING AGENT” (AJINOMOTO CO., INC., priority 2017, published 2018)
Structures can show the parent of a compound that is named as a salt.

How the values were obtained:
Type in all cases: in vivo, BALB/c mice
[1] = system: anti-OVA-specific IgG1 subclass antibody; experiment: Adjuvant activity test: anti-OVA-specific IgG1 subclass antibody in serum of OVA-immunized mice (ELISA); conditions: after secondary immunization, serum 2 weeks later; OVA 5 μg + compound 0.256 μmol in 5% αCD-added saline (Addavax mixed with saline at 1:1), dorsal-subcutaneous; compared to OVA single administration group
Method: 8-Week-old female BALB/c mice were divided into groups (N=6), and each group was primarily immunized by dorsal-subcutaneous administration of (1) ovalbumin (OVA) (5 μg) dissolved in saline as an antigen (OVA single administration group), (2) OVA 5 μg and Addavax™ (mixed with saline at 1:1) dissolved in saline (Addavax™ administration group) as positive control adjuvant, (3) OVA 5 μg and SZ137 0.256 μmol dissolved or dispersed in 5% α-cyclodextrin (hereinafter to be simply referred to as αCD)-added saline (SZ137 administration group), (4) OVA (5 μg) and SZ138 (0.256 μmol) dissolved or dispersed in 5% αCD-added saline (SZ138 administration group), (5) OVA (5 μg) and SZ142 (0.256 μmol) dissolved or dispersed in 5% αCD-added saline (SZ142 administration group), (6) OVA (5 μg) and SZ144 (0.256 μmol) dissolved or dispersed in 5% αCD-added saline (SZ144 administration group), (7) OVA (5 μg) and SZ145 (0.256 μmol) dissolved or dispersed in 5% αCD-added saline (SZ145 administration group), (8) OVA (5 μg) and SZ146 (0.256 μmol) dissolved or dispersed in 5% αCD-added saline (SZ146 administration group), (9) OVA (5 μg) and SZ147 (0.256 μmol) dissolved or dispersed in 5% αCD-added saline (SZ147 administration group), (10) OVA (5 μg) and SZ148 (0.256 μmol) dissolved or dispersed in 5% αCD-added saline (SZ148 administration group), each per mouse. Two week later, the secondary immunization was carried out by dorsal-subcutaneous administration of solutions or dispersions similar to those of the above-mentioned (1)-(10) again. Two weeks from the secondary immunization, the whole blood was extracted under anesthesia, and the obtained serum sample was measured for anti-OVA-specific IgG1 subclass antibody, anti-OVA-specific IgG2a subclass antibody, and anti-OVA-specific IgE antibody.
The measurement method of the anti-OVA-specific IgG1 subclass antibody and anti-OVA-specific IgG2a subclass antibody in Experimental Example 1 and the following Experimental Examples 2-10 is as follows.
To a 96 well plate was added 5 μg/ml OVA at 100 µl/well, and the mixture was incubated at 4° C. overnight. After incubation, the mixture was washed three times with 200 μl of PBS-T (PBS (phosphate buffered saline)+0.05% (v/v) Tween 20) per well, and blocked with 100 μl of 5% FCS (fetal calf serum)/PBS solution per well at room temperature for 1-2 hr. Thereafter, the mixture was washed three times with PBS-T (200 μl/well), a diluted serum sample (100 l/well) or the same amount of 5% FCS/PBS solution as a control was added, and the mixture was incubated at 37° C. for 1 hr. To calculate concentration of the antibody, the standard of an anti-OVA-specific IgG1 subclass antibody diluted with 2% FCS/PBS solution was added at 100 ng/ml, 50 ng/ml, 25 ng/ml, 12.5 ng/ml, 6.25 ng/ml, 3.125 ng/ml, 1.56 ng/ml, 0.781 ng/ml, 0.391 ng/ml, 0.195 ng/ml, 0.098 ng/ml, 0 ng/ml, per 1 well. When an anti-OVA-specific IgG2a subclass antibody was measured, the standard of an anti-OVA-specific IgG2a subclass antibody was added at 50 ng/ml, 25 ng/ml, 12.5 ng/ml, 6.25 ng/ml, 3.125 ng/ml, 1.56 ng/ml, 0.781 ng/ml, 0.391 ng/ml, 0.195 ng/ml, 0.098 ng/ml, 0.049 ng/ml, 0 ng/ml, per 1 well. Thereafter, similar to the samples, the mixture was washed five times with PBS-T (200 μl/well), a diluted biotinylated anti-mouse IgG1 antibody and IgG2a antibody were added (100 μl/well), and the mixture was incubated at 37° C. for 45 min. Thereafter, the mixture was washed five times with PBS-T (200 μl/well), a diluted anti-biotin-HRP antibody was added (100 μl/well), and the mixture was incubated at 37° C. for another 30 min. Thereafter, the mixture was washed five times with PBS-T (200 μl/well), TMB substrate solution was added (100 μl/well), and the mixture was incubated at room temperature for 10-15 min. Thereafter, a reaction quenching liquid (2N sulfuric acid solution) was added (50 l/well) to discontinue a color developing reaction, and the absorbance (OD Value=450 nm) was measured by a microplate reader. […]

[2] = system: anti-OVA-specific IgG1 subclass antibody; experiment: as above; conditions: after primary immunization, serum 2 weeks later; OVA 5 μg + compound 0.256 μmol in 5% αCD-added saline (Addavax mixed with saline at 1:1), dorsal-subcutaneous; compared to OVA single administration group
[3] = system: anti-OVA-specific IgG2a subclass antibody; experiment: Adjuvant activity test: anti-OVA-specific IgG2a subclass antibody in serum of OVA-immunized mice (ELISA); conditions: after primary immunization, serum 2 weeks later; OVA 5 μg + compound 0.256 μmol in 5% αCD-added saline (Addavax mixed with saline at 1:1), dorsal-subcutaneous; compared to OVA single administration group

| SMILES | anti-OVA-specific IgG1 subclass antibody production [1] | anti-OVA-specific IgG1 subclass antibody production [2] | anti-OVA-specific IgG2a subclass antibody production [3] |
| --- | --- | --- | --- |
| CCCCCCCCCCCCCCCCOC(=O)N[C@@H](CC(C)C)C(=O)NCCCCCCCC [SZ203, hexadecyl N-[(1S)-3-methyl-1-(octylcarbamoyl)butyl]carbamate] | tended to increase | tended to increase | Significant enhancement |
| CCCCCCCCCCCCCCCCCCCCCC(=O)N[C@@H](CC(C)C)C(=O)NCCCCCCCCCCCC [SZ197, N-[(1S)-1-(dodecylcarbamoyl)-3-methyl-butyl]docosanamide] | tended to increase | tended to increase | tended to increase |
| CCCCCCCCCCCCCCCCCC(=O)N[C@@H](CCCCN)C(=O)NCCCCCCCCCCCC.Cl [SZ185, N-[(1S)-5-amino-1-(dodecylcarbamoyl)pentyl]octadecanamide hydrochloride] | significant enhancement | significant enhancement | significant enhancement |
| CCCCCCCCCCCCCCCCCCCC(=O)N[C@@H](CCCNC(=N)N)C(=O)NCCCCCCCC.Cl [SZ183, N-[(1S)-4-guanidino-1-(octylcarbamoyl)butyl]icosanamide hydrochloride] | significant enhancement | significant enhancement | significant enhancement |
| CCCCCCCCCCCCCCCCNC(=O)N[C@@H](CCCNC(=N)N)C(=O)NCCCCCCCC.Cl [SZ210, (2S)-5-guanidino-2-(hexadecylcarbamoylamino)-N-octyl-pentanamide hydrochloride] | significant enhancement | significant enhancement | significant enhancement |
| CCCCCCCCCCCCCCCCCC(=O)N[C@@H](CC(C)C)C(=O)NCCCCCCCCCCCC [SZ195, N-[(1S)-1-(dodecylcarbamoyl)-3-methyl-butyl]octadecanamide] | tended to increase | tended to increase | tended to increase |
| CCCCCCCCCCCCCCCCCC(=O)N[C@@H](CCCNC(=N)N)C(=O)NCCCCCCCC.Cl [SZ182, N-[(1S)-4-guanidino-1-(octylcarbamoyl)butyl]octadecanamide hydrochloride] | showed a tendency to increase | a tendency toward increase was found | a tendency toward increase was found |
| CCCCCCCCCCCCCCCCOC(=O)N[C@@H](CCCNC(=N)N)C(=O)NCCCCCCCC.Cl [SZ215, hexadecyl N-[(1S)-4-guanidino-1-(octylcarbamoyl)butyl]carbamate hydrochloride] | a tendency toward increase | a tendency toward increase | significant enhancement |
| CCCCCCCCCCCCCCCCCC(=O)N[C@@H](CCCCNC(=N)N)C(=O)NCCCCCCCCCCCC.Cl [SZ205, N-[(1S)-1-(dodecylcarbamoyl)-5-guanidino-pentyl]octadecanamide hydrochloride] | significant enhancement | significant enhancement | significant enhancement |
| CCCCCCCCCCCCCCCCOC(=O)N[C@@H](CCCCN)C(=O)NCCCCCCCCCCCC.Cl [SZ189, hexadecyl N-[(1S)-5-amino-1-(dodecylcarbamoyl)pentyl]carbamate hydrochloride] | significant enhancement | a tendency toward increase was found | a tendency toward increase was found |
| CCCCCCCCCCCCCCCCNC(=O)N[C@@H](CC(C)C)C(=O)NCCCCCCCC [SZ201, (2S)-2-(hexadecylcarbamoylamino)-4-methyl-N-octyl-pentanamide] | tended to increase | tended to increase | tended to increase |
| CCCCCCCCCCCCCCCCNC(=O)NCCCCNC(=N)N.Cl [SZ190, 1-(4-guanidinobutyl)-3-hexadecyl-urea hydrochloride] | showed a tendency to increase | a tendency toward increase was found | a tendency toward increase was found |
| CCCCCCCCCCCCCCCC(=O)N[C@@H](CCCNC(=N)N)C(=O)NCCCCCCCC.Cl [SZ181, N-[(1S)-4-guanidino-1-(octylcarbamoyl)butyl]hexadecanamide hydrochloride] | showed a tendency to increase | a tendency toward increase was found | a tendency toward increase was found |
| CCCCCCCCCCCCNC(=O)[C@H](CCCNC(=N)N)N(CCCCCCC)CCCCCCC [SZ207, (2S)-2-(diheptylamino)-N-dodecyl-5-guanidino-pentanamide dihydrochloride] | significant enhancement | tended to increase | tended to increase |
| CCCCCCCCCCCCCCCCCCCC(=O)N[C@@H](CCCNC(=N)N)C(=O)NCCCCCCCCCCCC.Cl [SZ180, N-[(1S)-1-(dodecylcarbamoyl)-4-guanidino-butyl]icosanamide hydrochloride] | significant enhancement | significant enhancement | significant enhancement |
| CCCCCCCCCCCCCCCCCC(=O)N[C@H](CCCNC(=N)N)C(=O)NCCCCCCCCCCCC.Cl [SZ191, N-[(1R)-1-(dodecylcarbamoyl)-4-guanidino-butyl]octadecanamide hydrochloride] | significant enhancement | significant enhancement | significant enhancement |
| CCCCCCCCCCCCCCCCNC(=O)N[C@@H](CCCCN)C(=O)NCCCCCCCCCCCC.Cl [SZ214, (2S)-6-amino-N-dodecyl-2-(hexadecylcarbamoylamino)hexanamide hydrochloride] | significant enhancement | significant enhancement | significant enhancement |
